Laboratory results reported in patent publication US6337317B1, “Antimicrobial peptides and methods of use thereof” (priority 2000, dated 2002).
Where a SMILES comes first, the peptide text is derived from it.

Legend:
[1] = tested on: Candida albicans; type: cell-based; conditions: Candida albicans clinical lab isolate
Method: (§1) The biological activity of the peptides can be determined by standard methods known to those of skill in the art, such as a “minimal inhibitory concentration” (MIC) assay (see Wu and Hancock (1999) J. Biol Chem. 274:29-35 and Examples section). A MIC assay allows the determination of the lowest concentration of peptide that inhibits the multiplication and growth of mircoorganisms. Changes in the microorganism population are assessed by measuring the optical density (OD) of the population in broth or medium. Peptide MIC's can be determined for a variety of micoorganisms under a variety of conditions. Another assay for the biological activity of the peptides is a “fractional inhibitory concentration” (FIC) assay. This assay is especially useful for determining synergistic effects between the peptides of the invention, and between invention peptides and other compounds such as known antibiotics. A FIC assay employs the strategy of a MIC assay with additional variable(s), e.g., known antibiotics. One type of FIC assay is performed in a microwell plate containing microorganisms in broth. Peptides, in a range of dilutions, is added to each well following a patter of one dimension of the microwell plate, and antibiotics, in the other dimension. The FIC is calculated by looking at the impact of an antibiotic on the MIC of the peptide and the reciprocal relationship. […] Preferably, an FIC of less than 0.5 is obtained for synergism. As used herein, FIC can be determined as follows:
(§2) The bacterial strains used for antimicrobial activity assays included E. coli UB1005 (F^−, nalA37, metB1) and its outer membrane deficient mutant DC2 (16), E. coli KF130 (gyrA) (Hooper et al. (1987) Am. J. Med. 82:(Suppl. 4A),12-20), wild tppe strains of S. typhimurium 14028s (Fields et al. (1989) Science 243:1059-1062), S. aureus ATCC25923, S. aureus SAP0017 and R147. Also included was a clinical isolate of S. epidermidis were obtained from Dr. D. Speert, Department of Medicine, University of British Columbia, and P. aeruginosa PAO1 (Hancock and Carey (1979) J. Bacteriol. 140:902-910), H374 and H744 (Poole et al. (1993) J. Bacterial.175:7363-7372.) and E. faecalis ATCC 29212. Antifungal activity was tested using a clinical lab isolate of Candida albicans. All the strains were grown in Mueller Hinton (MH) broth (Difco Laboratories, Detroit, Mich.) at 37° C. unless otherwise indicated. The lipopolysaccharides (LPS) of E. coli UB1005 and P. aeruginosa H103 used for the dansyl-polymyxin B replacement assay were isolated as described by Moore et al. ((1986) Antimicrobial. Agents Chemother. 29:496-500). Polymyxin B, 1-N-phenylnapthylamine (NPN), carbonyl cyanide-m-chlorophenyl hydrazone (CCCP), Re LPS from S. Minnesota R595 (Re mutant) and LPS from E. coli 0111 :B4 were purchased from Sigma Chemicals Co. (St. Louis, Mo.). Dansyl polymyxin B was synthesized as described previously (Moore et al. (1986) Antimicrobial. Agents Chemother. 29:496-500). The lipids 1-pamitoyl-2-oleoyl-sn-glycero-3-phosphocholine (POPC), 1-palmitoyl-2-oleoyl-sn-glycero-3-phosphoglycerol (POPG), 1-palmitoyl-2-oleoyl-sn-glycero-3-phosphoethanolamine (POPE) and phosphatidylglycerol from egg yolk (egg-PG) were purchased from Avanti Polar Lipids Inc. (Alabaster, Ala.). The fluorescent dye 3,3-dipropylthiacarbocyanine (diSC35) was purchased from Molecular Probes (Eugene, Oreg.).
(§3) MIC Assay p The minimum inhibitory concentrations of (MIC) of several invention peptides were determined using methods described elsewhere (Wu and Hancock, (1999) J. Biol Chem. 274:29-35). Cells were grown overnight at 37EC in LB-S (Luria broth without any salt supplement) and diluted one in 10,000 in the same medium to give concentrations of about 10^4 to 10^5 CFU/ml. The broth dilutions were set up in a 96-well microtiter plate by putting 200 μl of LB-S containing the initial concentration of antibiotic or compound in column 1 and 100 Φl of the same medium in columns 2-12. […]

[2] = tested on: Enterococcus facaelis; type: cell-based
Method: as §1, §2, §3

[3] = tested on: Escherichia coli UB1005; type: cell-based
Method: as §1, §2, §3

[4] = tested on: Pseudomonas aeruginosa PAO1; type: cell-based
Method: as §1, §2, §3

[5] = tested on: Salmonella typhimurium 14028s; type: cell-based
Method: as §1, §2, §3

[6] = tested on: Staphylococcus aureus ATCC 25923; type: cell-based
Method: as §1, §2, §3

[7] = tested on: Staphylococcus epidermidis; type: cell-based; conditions: Staphylococcus epidermidis clinical isolate
Method: as §1, §2, §3

[8] = tested on: P. aeruginosa H374; type: cell-based, Pseudomonas aeruginosa
Method: (§4) The biological activity of the peptides can be determined by standard methods known to those of skill in the art, such as a “minimal inhibitory concentration” (MIC) assay (see Wu and Hancock (1999) J. Biol Chem. 274:29-35 and Examples section). A MIC assay allows the determination of the lowest concentration of peptide that inhibits the multiplication and growth of mircoorganisms. Changes in the microorganism population are assessed by measuring the optical density (OD) of the population in broth or medium. Peptide MIC's can be determined for a variety of micoorganisms under a variety of conditions. Another assay for the biological activity of the peptides is a “fractional inhibitory concentration” (FIC) assay. This assay is especially useful for determining synergistic effects between the peptides of the invention, and between invention peptides and other compounds such as known antibiotics. A FIC assay employs the strategy of a MIC assay with additional variable(s), e.g., known antibiotics. […] The FIC is calculated by looking at the impact of an antibiotic on the MIC of the peptide and the reciprocal relationship. […] As used herein, FIC can be determined as follows: […]
(§5) MIC Assay p The minimum inhibitory concentrations of (MIC) of several invention peptides were determined using methods described elsewhere (Wu and Hancock, (1999) J. Biol Chem. 274:29-35). […]

[9] = tested on: P. aeruginosa H744; type: cell-based, Pseudomonas aeruginosa
Method: as §4, §5

[10] = tested on: S. aureus R147; type: cell-based, Staphylococcus aureus
Method: as §4, §5

[11] = tested on: S. aureus SAP0017; type: cell-based, Staphylococcus aureus
Method: as §4, §5

[12] = tested on: E. coli DC2; test: Cytoplasmic membrane depolarization, diSC35 assay; type: cell-based, Escherichia coli; conditions: 0.25 μg/ml peptide
Method: The arrowhead indicates the time at which 0.25 μg/ml peptide was added. PV5: SEQ ID NO:11; PV7: SEQ ID NO:4; and PV8: SEQ ID NO:3.
The cytoplasmic membrane depolarization activity of the peptides was determined (Wu and Hancock (1999) J. Biol. Chem. 274:29-35) using the membrane potential sensitive dye 3,3-dipropylthiacarbocyanine diSC35 (28) and E. coli DC2. Bacterial cells in mid-log phase were centrifuged, washed in 5 mM HEPES, pH 7.8, and resuspended in the same buffer to an OD600 of 0.05. A stock solution of diSC35 was added to a final concentration of 0.4 μM and quenching was allowed to occur at room temperature for 20-30 min. Then KCl was added to the cell suspension to a final concentration of 100 mM to equilibrate the cytoplasmic and external K^+ concentrations. A 2-mL cell suspension was placed in a 1 cm cuvette and the desired concentration of tested peptide was added. Changes in fluorescence due to the disruption of the membrane potential in the cytoplasmic membrane were continuously recorded using a Perkin-Elmer model 650-10S spectrofluorimeter at an excitation wavelength of 622 nm and an emission wavelength of 670 nm. The concentration of peptide leading to a 50% of maximal increase in NPN uptake was recorded as the P50.

## CC(C)[C@@H]1NC(=O)[C@H](CCCNC(=N)N)NC(=O)[C@H](Cc2ccccc2)NC(=O)[C@@H](NC(=O)[C@H](Cc2c[nH]c3ccccc23)NC(=O)[C@H](CCCNC(=N)N)NC(=O)[C@@H](N)CCCNC(=N)N)CSSC[C@@H](C(=O)N[C@@H](CCCNC(=N)N)C(N)=O)NC(=O)[C@H](CCCCN)NC(=O)[C@H](CCCNC(=N)N)NC(=O)[C@H](Cc2ccc(O)cc2)NC(=O)[C@@H]2CSSC[C@H](NC1=O)C(=O)N[C@@H](Cc1ccc(O)cc1)C(=O)N[C@@H](CCCNC(=N)N)C(=O)NCC(=O)N[C@@H](Cc1ccccc1)C(=O)N2 [Polyphemusin I] (HELM PEPTIDE1{R.R.W.C.F.R.V.C.Y.R.G.F.C.Y.R.K.C.R.[am]}$PEPTIDE1,PEPTIDE1,4:R3-17:R3|PEPTIDE1,PEPTIDE1,8:R3-13:R3$$$V2.0; N-terminus and C-terminus assumed)
[1]
  MIC: 1 µg/mL
[2]
  MIC: 0.25 µg/mL
[3]
  MIC: 0.125 µg/mL
[4]
  MIC: 0.25 µg/mL
[5]
  MIC: 0.25 µg/mL
[6]
  MIC: 0.5 µg/mL
[7]
  MIC: 0.25 µg/mL
[8]
  MIC: 0.25 µg/mL
[9]
  MIC: 0.25 µg/mL
[10]
  MIC: 0.5 µg/mL
[11]
  MIC: 0.5 µg/mL
[12]
  time to dissipation of the cytoplasmic membrane potential: ≤ 5 min
